Test results from paper PMC12687453, “Plasma membrane folate transport in fungi and plants is mediated by members of the oligopeptide transporter (OPT) family” (Biochemical Journal, 2025).

Legend:
Assay in all cases: LC-MS/MS cellular uptake versus vector control
Format in all cases: cell-based
[1] = molecular target: T1, AfOPTH (Aspergillus fumigatus, UniProt Q4WAD5); conditions: 100 uM folinic acid, opt1-delta cells, pH 5.5, 30 °C, 5 min
T1 construct: gene AFUA_7G00910; plasmid-expressed in S. cerevisiae opt1-delta cells (MET25 promoter; TEF)
T1 sequence (Q4WAD5 1-757): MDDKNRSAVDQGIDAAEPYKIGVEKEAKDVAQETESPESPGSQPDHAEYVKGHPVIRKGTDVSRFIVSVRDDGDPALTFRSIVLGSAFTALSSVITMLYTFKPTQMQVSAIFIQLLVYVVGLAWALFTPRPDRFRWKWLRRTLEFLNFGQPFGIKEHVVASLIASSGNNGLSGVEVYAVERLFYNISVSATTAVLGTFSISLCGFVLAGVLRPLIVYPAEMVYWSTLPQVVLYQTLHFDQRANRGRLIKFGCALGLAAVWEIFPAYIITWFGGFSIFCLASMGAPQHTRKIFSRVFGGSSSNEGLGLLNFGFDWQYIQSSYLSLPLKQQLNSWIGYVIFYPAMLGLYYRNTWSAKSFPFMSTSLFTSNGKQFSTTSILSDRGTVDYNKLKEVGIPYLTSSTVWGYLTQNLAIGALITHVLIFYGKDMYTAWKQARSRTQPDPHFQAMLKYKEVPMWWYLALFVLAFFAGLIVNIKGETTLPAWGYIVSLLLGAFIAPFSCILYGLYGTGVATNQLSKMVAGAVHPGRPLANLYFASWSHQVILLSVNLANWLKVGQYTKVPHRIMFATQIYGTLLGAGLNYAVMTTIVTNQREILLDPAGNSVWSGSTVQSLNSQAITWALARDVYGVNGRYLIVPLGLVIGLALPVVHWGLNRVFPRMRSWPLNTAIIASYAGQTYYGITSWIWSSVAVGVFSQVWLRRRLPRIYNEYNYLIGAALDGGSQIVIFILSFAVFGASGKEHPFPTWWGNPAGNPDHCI

[2] = molecular target: T2, AtOPT4 (Arabidopsis thaliana, UniProt Q9FME8); conditions: 100 uM folinic acid, opt1-delta cells, pH 5.5, 30 °C, 5 min
T2 construct: gene OPT4; cDNA from Arabidopsis Biological Resource Center, TEF promoter plasmid, in S. cerevisiae opt1-delta cells
T2 sequence (Q9FME8 2-729): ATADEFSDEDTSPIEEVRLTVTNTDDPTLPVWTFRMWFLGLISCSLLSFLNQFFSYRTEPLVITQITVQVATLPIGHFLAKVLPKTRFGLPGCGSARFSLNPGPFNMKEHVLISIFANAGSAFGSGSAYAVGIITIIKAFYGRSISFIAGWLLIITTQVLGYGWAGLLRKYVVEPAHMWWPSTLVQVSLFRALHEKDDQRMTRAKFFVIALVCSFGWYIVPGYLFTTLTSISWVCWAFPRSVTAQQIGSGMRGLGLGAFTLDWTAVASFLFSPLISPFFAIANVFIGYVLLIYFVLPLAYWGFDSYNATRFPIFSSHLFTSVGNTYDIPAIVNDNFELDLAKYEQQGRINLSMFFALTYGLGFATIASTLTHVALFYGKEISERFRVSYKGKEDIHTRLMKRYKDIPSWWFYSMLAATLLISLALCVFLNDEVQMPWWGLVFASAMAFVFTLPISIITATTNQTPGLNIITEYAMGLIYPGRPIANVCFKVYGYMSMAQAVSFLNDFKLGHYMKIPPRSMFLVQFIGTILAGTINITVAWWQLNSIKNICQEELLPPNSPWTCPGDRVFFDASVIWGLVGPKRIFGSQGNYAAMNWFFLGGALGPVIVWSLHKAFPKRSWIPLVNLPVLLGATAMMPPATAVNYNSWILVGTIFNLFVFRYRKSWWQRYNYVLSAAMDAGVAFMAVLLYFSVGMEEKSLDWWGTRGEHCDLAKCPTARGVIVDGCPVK

[3] = molecular target: T3, AtOPT6 (Arabidopsis thaliana, UniProt Q9T095); conditions: 100 uM folinic acid, opt1-delta cells, pH 5.5, 30 °C, 5 min
T3 construct: gene OPT6; cDNA from Arabidopsis Biological Resource Center, TEF promoter plasmid, in S. cerevisiae opt1-delta cells
T3 sequence (Q9T095 1-736): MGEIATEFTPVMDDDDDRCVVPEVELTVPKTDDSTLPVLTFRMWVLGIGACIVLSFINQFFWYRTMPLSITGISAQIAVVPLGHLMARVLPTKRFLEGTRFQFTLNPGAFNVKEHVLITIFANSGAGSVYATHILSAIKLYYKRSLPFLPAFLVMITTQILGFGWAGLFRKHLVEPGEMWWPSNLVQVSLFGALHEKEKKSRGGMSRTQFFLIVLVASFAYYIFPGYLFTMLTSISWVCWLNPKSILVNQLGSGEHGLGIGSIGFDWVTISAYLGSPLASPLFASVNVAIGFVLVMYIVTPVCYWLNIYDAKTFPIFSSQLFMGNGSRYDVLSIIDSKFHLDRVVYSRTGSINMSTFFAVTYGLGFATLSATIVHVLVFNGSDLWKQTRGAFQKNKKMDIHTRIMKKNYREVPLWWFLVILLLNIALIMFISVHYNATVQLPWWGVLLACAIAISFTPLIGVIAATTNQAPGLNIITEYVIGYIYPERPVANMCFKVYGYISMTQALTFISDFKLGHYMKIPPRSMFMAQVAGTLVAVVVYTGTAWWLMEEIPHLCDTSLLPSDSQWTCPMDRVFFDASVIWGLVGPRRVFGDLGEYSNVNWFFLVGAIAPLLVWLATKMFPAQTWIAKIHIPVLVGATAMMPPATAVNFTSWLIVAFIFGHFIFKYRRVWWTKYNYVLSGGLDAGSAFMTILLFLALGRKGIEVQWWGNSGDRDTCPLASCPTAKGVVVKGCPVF

[4] = molecular target: T4, Opt1p/Hgt1p (ScOPT1) (Saccharomyces cerevisiae, UniProt P40897); conditions: 100 uM folinic acid, opt1-delta cells, pH 5.5, 30 °C; time course
T4 construct: gene OPT1; full-length plasma membrane transporter, TEF promoter plasmid, in S. cerevisiae opt1-delta cells
T4 sequence (P40897 1-799): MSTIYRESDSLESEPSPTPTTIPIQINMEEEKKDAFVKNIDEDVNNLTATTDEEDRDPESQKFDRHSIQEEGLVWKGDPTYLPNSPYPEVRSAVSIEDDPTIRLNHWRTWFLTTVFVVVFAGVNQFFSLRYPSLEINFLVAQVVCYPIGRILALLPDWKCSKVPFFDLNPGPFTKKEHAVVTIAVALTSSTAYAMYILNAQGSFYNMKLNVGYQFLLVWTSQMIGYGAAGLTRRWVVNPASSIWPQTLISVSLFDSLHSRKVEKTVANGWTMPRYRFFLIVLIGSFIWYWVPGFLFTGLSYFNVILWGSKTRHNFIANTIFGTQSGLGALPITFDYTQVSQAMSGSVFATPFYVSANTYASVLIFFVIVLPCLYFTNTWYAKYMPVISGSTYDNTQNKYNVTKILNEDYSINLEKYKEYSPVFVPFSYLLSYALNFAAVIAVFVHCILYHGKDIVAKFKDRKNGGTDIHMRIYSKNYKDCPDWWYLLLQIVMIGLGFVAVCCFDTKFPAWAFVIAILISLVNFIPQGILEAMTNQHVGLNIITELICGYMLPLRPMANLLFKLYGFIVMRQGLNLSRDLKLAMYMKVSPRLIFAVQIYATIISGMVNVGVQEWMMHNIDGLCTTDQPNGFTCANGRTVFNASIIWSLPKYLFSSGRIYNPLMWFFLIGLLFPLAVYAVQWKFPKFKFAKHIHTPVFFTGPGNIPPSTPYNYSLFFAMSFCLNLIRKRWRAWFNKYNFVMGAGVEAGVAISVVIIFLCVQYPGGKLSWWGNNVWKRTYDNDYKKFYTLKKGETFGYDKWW

[5] = molecular target: T5, AtOPT2 (Arabidopsis thaliana, UniProt O04514); conditions: 100 uM folinic acid, opt1-delta cells, pH 5.5, 30 °C, 5 min
T5 construct: gene OPT2; cDNA from Arabidopsis Biological Resource Center, TEF promoter plasmid, in S. cerevisiae opt1-delta cells
T5 sequence (O04514 1-734): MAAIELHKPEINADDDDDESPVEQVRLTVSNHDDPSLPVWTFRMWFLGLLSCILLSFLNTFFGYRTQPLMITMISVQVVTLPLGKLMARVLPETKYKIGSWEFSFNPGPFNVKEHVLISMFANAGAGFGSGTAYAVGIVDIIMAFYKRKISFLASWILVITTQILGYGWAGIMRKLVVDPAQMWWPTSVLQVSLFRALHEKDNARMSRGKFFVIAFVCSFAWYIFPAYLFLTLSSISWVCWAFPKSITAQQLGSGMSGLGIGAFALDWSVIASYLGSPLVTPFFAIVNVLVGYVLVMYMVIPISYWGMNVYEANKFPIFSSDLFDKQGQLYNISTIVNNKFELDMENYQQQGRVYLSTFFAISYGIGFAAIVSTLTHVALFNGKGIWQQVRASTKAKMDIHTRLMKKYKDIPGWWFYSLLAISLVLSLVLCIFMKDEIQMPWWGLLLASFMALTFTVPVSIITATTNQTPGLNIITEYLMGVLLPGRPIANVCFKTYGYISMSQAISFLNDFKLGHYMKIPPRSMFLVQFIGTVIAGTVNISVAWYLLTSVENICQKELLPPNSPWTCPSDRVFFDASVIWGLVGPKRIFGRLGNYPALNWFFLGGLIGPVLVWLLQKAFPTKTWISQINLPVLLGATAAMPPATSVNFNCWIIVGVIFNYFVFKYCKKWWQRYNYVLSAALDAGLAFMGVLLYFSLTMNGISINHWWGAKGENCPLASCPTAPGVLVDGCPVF

[6] = molecular target: T6, CaOPT1 (Candida albicans, UniProt Q5YBA3); conditions: 100 uM folinic acid, opt1-delta cells, pH 5.5, 30 °C, 5 min
T6 construct: gene OPT1; TEF promoter plasmid, expressed in S. cerevisiae opt1-delta cells
T6 sequence (Q5YBA3 1-783): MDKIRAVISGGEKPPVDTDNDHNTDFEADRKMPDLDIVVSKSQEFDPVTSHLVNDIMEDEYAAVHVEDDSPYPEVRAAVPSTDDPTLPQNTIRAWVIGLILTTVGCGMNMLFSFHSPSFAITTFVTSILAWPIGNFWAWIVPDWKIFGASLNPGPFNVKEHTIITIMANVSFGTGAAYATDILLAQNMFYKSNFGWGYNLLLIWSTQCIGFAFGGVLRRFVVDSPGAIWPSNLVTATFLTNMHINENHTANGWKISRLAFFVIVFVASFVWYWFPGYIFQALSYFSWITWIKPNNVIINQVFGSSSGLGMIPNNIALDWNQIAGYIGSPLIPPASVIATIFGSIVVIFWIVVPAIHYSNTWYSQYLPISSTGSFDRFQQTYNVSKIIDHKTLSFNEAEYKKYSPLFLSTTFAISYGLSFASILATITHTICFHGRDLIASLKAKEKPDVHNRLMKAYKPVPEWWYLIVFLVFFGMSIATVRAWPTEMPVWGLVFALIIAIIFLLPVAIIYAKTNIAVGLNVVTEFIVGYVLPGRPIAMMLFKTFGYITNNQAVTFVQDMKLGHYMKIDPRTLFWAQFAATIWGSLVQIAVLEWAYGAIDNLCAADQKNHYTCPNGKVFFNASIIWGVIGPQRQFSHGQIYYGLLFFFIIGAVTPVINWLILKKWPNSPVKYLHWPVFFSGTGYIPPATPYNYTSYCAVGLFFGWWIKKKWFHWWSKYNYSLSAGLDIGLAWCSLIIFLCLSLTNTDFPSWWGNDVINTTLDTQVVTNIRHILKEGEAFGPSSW

Compound: Nc1nc2c(c(=O)[nH]1)N(C=O)[C@@H](CNc1ccc(C(=O)N[C@@H](CCC(=O)O)C(=O)O)cc1)CN2 [folinic acid]
- LC-MS/MS cellular uptake versus vector control [1]: carried out uptake experiments with AfOPTH to confirm its ability to transport folates
- LC-MS/MS cellular uptake versus vector control [2]: AtOPT2 and AtOPT4 and even AtOPT6 contribute to folate transport
- LC-MS/MS cellular uptake versus vector control [3]: AtOPT2 and AtOPT4 and even AtOPT6 contribute to folate transport
- LC-MS/MS cellular uptake versus vector control [4]: a rapid increase in intracellular folinic acid was observed in the cells bearing TEF-OPT1 plasmid
- LC-MS/MS cellular uptake versus vector control [5]: AtOPT2 and AtOPT4 and even AtOPT6 contribute to folate transport
- LC-MS/MS cellular uptake versus vector control [6]: confirmed the ability of C. albicans CaOPT1 to transport folate by uptake assays
